Measurements taken from patent US6362193B1, “Cycloalkenyl substituted compounds” (SmithKline Beecham Corporation, priority 1997, dated 2002).

Legend:
CSBP2 = target: T1, CSBP2 (Homo sapiens, UniProt Q16539); test: CSBP Kinase Assay; assay type: biochemical; conditions: yeast-expressed purified CSBP2; 170 uM ATP (Km); T669 peptide substrate; 30° C. for 10 min
T1 construct: made in house; host or cells: yeast
Description: This assay measures the CSBP-catalyzed transfer of ^32P from [a-^32P]ATP to threonine residue in an epidermal growth factor receptor (EGFR)-derived peptide (T669) with the following sequence: […] (residues 661-681). (See Gallagher et al., “Regulation of Stress Induced Cytokine Production by Pyridinyl Imidazoles: Inhibition of CSPB Kinase”, BioOrganic & Medicinal Chemistry, to be published 1996).
Kinase reactions (total volume 30 ul) contain: 25 mM Hepes buffer, pH 7.5; 10 mM MgCl2; 170 uM ATP^(1); 10 uM Na ortho vanadate; 0.4 mM T669 peptide; and 20-80 ng of yeast-expressed purified CSBP2 (see Lee et al., Nature 300, n(72), 739-746 (December 1994)). Compounds (5 ul from [6×] stock^(2)) are pre-incubated with the enzyme and peptide for 20 min on ice prior to starting the reactions with 32P/MgATP. Reactions are incubated at 30° C. for 10 min and stopped by adding 10 ul of 0.3 M phosphoric acid. 32P-labeled peptide is separated on phosphocellulose (Wattman, p81) filters by spotting 30 ul reaction mixture. Filters are washed 3 times with 75 mM phosphoric acid followed by 2 washes with H2O, and counted for 32P.
(1) The Km of CSBP for ATP was determined to be 170 uM. Therefore, compounds screened at the Km value of ATP.
(2) Compounds are usually dissolved in DMSO and are diluted in 25 mM Hepes buffer to get final concentration of DMSO of 0.17%.

T1 sequence (Q16539 whole entry): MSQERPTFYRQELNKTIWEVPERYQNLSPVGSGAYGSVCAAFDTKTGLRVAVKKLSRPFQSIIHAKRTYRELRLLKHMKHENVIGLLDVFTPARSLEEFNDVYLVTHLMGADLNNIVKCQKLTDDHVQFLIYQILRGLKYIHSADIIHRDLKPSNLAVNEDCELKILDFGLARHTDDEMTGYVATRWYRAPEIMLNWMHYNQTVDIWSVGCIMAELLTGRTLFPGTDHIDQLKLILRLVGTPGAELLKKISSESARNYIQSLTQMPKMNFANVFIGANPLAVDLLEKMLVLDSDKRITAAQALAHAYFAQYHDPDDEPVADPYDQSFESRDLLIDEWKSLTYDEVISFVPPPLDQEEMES

- melting point: 134 to 135 °C
- IC50 (CSBP2): < 50 µM
Compound: Nc1nccc(C2=C(c3ccc(F)cc3)CCC2)n1 [Example 1, 1-[4-(2-Aminopyrimidinyl)]-2-(4-fluorophenyl)cyclopenten-1-ene]
